The target in one test is T1, pSTAT6 (Homo sapiens, UniProt P42226).
T1 sequence (P42226 1-847): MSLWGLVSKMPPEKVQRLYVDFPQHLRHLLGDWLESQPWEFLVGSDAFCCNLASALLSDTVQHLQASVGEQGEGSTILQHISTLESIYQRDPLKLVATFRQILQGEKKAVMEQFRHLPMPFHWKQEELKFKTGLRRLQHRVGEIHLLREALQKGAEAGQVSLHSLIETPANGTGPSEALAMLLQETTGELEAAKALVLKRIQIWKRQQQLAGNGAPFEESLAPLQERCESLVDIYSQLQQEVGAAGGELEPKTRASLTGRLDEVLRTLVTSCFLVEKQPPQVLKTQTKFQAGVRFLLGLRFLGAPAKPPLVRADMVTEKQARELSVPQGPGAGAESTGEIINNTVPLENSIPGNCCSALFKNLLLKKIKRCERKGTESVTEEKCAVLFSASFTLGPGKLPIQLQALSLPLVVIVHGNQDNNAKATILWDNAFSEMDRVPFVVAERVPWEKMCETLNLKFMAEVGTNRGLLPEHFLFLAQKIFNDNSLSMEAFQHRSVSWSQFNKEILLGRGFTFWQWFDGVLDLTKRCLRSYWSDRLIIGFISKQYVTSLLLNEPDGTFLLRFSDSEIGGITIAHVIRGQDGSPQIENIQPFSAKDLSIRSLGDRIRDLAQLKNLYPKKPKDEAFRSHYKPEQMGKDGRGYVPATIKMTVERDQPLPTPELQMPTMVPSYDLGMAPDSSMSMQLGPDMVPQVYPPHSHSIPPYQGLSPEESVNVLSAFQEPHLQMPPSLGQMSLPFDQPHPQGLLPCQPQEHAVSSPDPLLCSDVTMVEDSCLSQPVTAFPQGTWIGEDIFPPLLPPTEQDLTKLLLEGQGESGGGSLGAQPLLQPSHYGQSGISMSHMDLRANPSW
The test can be described thus: MSD-pSTAT-PBMC Assay (pSTAT6, IL-4 stimulated). The format is cell-based. As to conditions: compound 3 hrs, then 1 ng/mL IL-4 10 min, pY641-STAT6, read-out: pSTAT6 IC50. The text has this: Cryopreserved Peripheral Blood Mononuclear Cells (PBMC) are from AllCells. Recombinant Human IL-4 and IL-6 are from Peprotech. Mouse monoclonal anti-STAT3 antibody, rabbit monoclonal anti-pY705-STAT3 antibody, rabbit monoclonal Anti-pY641-STAT6 antibody, and lysis buffer are from Cell Signaling Technology (CST). Mouse monoclonal anti-STAT6 antibody is from BioLegend. Assay plates, blocker, and anti-rabbit secondary antibody are from Meso Scale Discovery (MSD).
Cryopreserved PBMCs were thawed out and allowed to recover overnight in IMDM+10% heat-inactivated FBS prior to plating 50,000 (STAT3) or 25,000 (STAT6) cells per well in 96-well U-bottom tissue culture plates. Cells were treated with compound for 3 hrs, then stimulated with 10 ng/mL IL-6 (STAT3) or 1 ng/mL IL-4 (STAT6) for 10 min. Cells were then spun down and washed with ice-cold PBS prior to lysing the cell pellet with 1× lysis buffer (CST) with 1× HALT protease and phosphatase inhibitor cocktail (Thermo). Lysates were transferred to and incubated overnight at 4° C. with shaking in QuickPlex 96-well high bind assay plates (MSD) pre-coated overnight with 30 μL per well of […] mouse monoclonal anti-STAT3 antibody (STAT3) or 2 μg/mL mouse monoclonal anti-STAT6 antibody (STAT6) in 1× PBS, and pre-blocked for 1 hour with 3% Blocker-A (MSD). Captured protein in the assay plates were then washed and probed with 25 μL per well of […] rabbit monoclonal anti-pY705-STAT3 antibody (STAT3) or […] rabbit monoclonal Anti-pY641-STAT6 antibody (STAT6) in 1% Blocker-A for 1 hour at room temperature with shaking, then washed and probed with 25 ul per well of 1 ug/ml Sulfo-TAG Labeled Goat Anti-Rabbit Antibody (MSD) in 1% Blocker-A for 1 hour at room temperature with shaking. Assay plates were then washed and 150 μL of 1× Read Buffer-T (MSD) was added to each well prior to reading on an SQ120 MSD Plate Reader. Assay signal from each sample was subtracted by the signal from unstimulated control wells and normalized to DMSO control wells. IC50 values were calculated using Graph Pad Prism Dose-Response Nonlinear Regression with variable slope. For both pSTAT3 and pSTAT6 A=≤100 nM; B=>100-1000 nM; C=>1000-3000 nM; and D=>3 μM.

The target of the next test is T2, STAT3 (Homo sapiens, UniProt P40763).
T2 construct: Recombinant STAT3 protein (STAT3(G127-I722))
The test can be described thus: STAT3 Fluorescence Polarization (FP) Assay. The class given is binding. How it is done: An FP assay was developed to determine IC50 values for test substances.
Recombinant STAT3 protein (STAT3(G127-I722)) at 25 nM was combined with a fluorescently labeled, phosphotyrosine peptide probe (5-FAM-GpYLPQTV-NH2) at 2 nM in FP buffer (10 mM HEPES pH 7.4, 50 mM NaCl, 1 mM EDTA, 0.05% Tween 20, 2 mM DTT). 50 μL of STAT3-probe mixture was added to serial diluted compounds in black, 96-well plates (Greiner BioOne 655076) to a final concentration of 1% DMSO. Reaction components were mixed, and FP was measured after 45-minute incubation at room temperature using a Tecan Spark multimode plate reader. FP signal (mP) was plotted against the log concentration of the test substances and IC50 values were calculated by nonlinear regression analysis using GraphPad Prism software. For STAT3 FP assay, A=≤100 nM; B=>100-1000 nM; C=>1-10 μM; and D=>10 μM.
(In general: Polarisation of emitted light reports the rotation of a fluorescent probe.)

The target in another test is T3, STAT6 (Homo sapiens, UniProt P42226).
T3 construct: Recombinant STAT6 protein (STAT6(W123-T658))
T3 sequence (P42226 123-658): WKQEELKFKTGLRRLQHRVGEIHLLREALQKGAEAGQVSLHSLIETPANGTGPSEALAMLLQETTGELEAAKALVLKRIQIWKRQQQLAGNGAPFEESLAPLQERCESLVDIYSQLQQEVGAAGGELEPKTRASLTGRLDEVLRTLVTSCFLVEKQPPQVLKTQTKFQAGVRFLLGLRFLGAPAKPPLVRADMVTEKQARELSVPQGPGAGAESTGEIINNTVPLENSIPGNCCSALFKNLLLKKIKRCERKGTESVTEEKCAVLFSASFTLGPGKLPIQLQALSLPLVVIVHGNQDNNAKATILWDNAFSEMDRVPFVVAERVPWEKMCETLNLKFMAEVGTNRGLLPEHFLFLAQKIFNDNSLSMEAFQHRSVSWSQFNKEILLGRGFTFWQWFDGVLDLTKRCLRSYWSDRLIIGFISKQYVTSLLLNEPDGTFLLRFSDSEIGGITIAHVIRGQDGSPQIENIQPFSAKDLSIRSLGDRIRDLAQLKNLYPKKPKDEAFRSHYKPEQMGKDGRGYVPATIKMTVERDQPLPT
The test can be described thus: STAT6 Fluorescence Polarization (FP) Assay. The format is binding. As for the experimental part:
An FP assay was developed to determine IC50 values for test substances. Recombinant STAT6 protein (STAT6(W123-T658)) at 250 nM was combined with a fluorescently labeled, phosphotyrosine peptide probe (5-FAM-ApYKPFQDLI-NH2) at 2 nM in FP buffer (10 mM HEPES pH 7.4, 50 mM NaCl, 1 mM EDTA, 0.05% Tween 20, 2 mM DTT). 50 μL of STAT6-probe mixture was added to serial diluted compounds in black, 96-well plates (Greiner BioOne 655076) to a final concentration of 1% DMSO. Reaction components were mixed, and FP was measured after 45-minute incubation at room temperature using a Tecan Spark multimode plate reader. FP signal (mP) was plotted against the log concentration of the test substances and IC50 values were calculated by nonlinear regression analysis using GraphPad Prism software. For STAT6 FP assay, A=≤300 nM; B=>300-3000 nM; C=>3-30 μM; and D=>30 μM.

A further test has as its target pSTAT3 (Homo sapiens, UniProt P40763). The experiment in a line: MSD-pSTAT-PBMC Assay (pSTAT3, IL-6 stimulated). The format is cell-based. Particulars: read-out: pSTAT3 IC50, compound 3 hrs, then 10 ng/mL IL-6 10 min, pY705-STAT3. An outline of the steps: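 Human PBMCs, recovered overnight, get compound for 3 hrs, then 10 min stimulation with 10 ng/mL IL-6 (pSTAT3; 50,000 cells) or 1 ng/mL IL-4 (pSTAT6; 25,000 cells). Lysates go to MSD sandwich immunoassay (pY705-STAT3 or pY641-STAT6 detection); signal minus unstimulated, normalized to DMSO, IC50 by variable-slope fit.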

pSTAT3, sequence (P40763 whole entry): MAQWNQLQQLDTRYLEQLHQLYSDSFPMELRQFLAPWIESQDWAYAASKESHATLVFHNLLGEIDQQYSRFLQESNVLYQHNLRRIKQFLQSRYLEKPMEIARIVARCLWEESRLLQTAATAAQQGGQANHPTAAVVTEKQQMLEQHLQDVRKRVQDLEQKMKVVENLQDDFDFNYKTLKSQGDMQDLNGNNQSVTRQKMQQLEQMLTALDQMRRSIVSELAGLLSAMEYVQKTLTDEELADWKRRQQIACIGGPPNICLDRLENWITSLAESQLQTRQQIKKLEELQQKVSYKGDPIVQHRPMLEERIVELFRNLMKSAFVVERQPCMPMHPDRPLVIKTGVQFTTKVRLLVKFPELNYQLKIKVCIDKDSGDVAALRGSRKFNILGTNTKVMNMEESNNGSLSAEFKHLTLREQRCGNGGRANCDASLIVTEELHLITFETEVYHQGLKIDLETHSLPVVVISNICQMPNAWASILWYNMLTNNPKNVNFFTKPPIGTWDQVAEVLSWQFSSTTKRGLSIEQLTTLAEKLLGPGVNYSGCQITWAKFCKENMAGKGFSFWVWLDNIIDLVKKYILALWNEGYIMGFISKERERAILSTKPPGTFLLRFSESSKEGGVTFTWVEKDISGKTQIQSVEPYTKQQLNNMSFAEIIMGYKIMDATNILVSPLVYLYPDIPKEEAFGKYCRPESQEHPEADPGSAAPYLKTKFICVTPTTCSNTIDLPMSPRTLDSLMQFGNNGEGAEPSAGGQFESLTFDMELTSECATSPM
T2 sequence (P40763 127-722): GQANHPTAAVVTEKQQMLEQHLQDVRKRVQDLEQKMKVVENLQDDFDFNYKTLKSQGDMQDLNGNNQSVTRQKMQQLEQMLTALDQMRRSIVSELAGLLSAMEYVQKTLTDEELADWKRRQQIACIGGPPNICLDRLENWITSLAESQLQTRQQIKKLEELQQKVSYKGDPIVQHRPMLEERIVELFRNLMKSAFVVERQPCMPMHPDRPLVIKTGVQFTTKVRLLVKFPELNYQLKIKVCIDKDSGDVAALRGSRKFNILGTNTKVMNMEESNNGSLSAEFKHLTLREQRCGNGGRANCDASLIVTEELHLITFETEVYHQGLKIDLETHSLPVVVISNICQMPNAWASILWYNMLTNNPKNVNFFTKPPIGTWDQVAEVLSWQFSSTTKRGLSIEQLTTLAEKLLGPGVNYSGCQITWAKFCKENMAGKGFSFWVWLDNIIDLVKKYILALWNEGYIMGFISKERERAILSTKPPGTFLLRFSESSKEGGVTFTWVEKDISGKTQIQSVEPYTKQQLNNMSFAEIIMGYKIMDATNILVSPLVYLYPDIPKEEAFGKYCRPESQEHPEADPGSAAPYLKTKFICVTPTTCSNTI

Take `CCCC(=O)SCCOP(=O)(OCCSC(=O)CCC)C(F)(F)c1ccc2sc(C(=O)N[C@H]3CCCC[C@H]4CC[C@@H](C(=O)N5C[C@@H](C#N)[C@H](c6cccc(OCCCCCC#Cc7cccc8c7CN(C7CCC(=O)NC7=O)C8=O)c6)C5)N4C3=O)cc2c1` (relative stereo) [Compound 14, S,S(((((2-(((3S,6S,10aS)-3-((rel-3S,4R)-3-cyano-4-(3-((7-(2-(2,6-dioxopiperidin-3-yl)-1-oxoisoindolin-4-yl)hept-6-yn-1-yl)oxy)phenyl)pyrrolidine-1-carbonyl)-5-oxodecahydropyrrolo[1,2-a]azocin-6-yl)carbamoyl)benzo[b]thiophen-5-yl)difluoromethyl)phosphoryl)bis(oxy))bis(ethane-2,1-diyl)) dibutanethioate]: on pSTAT6, the IC50 is 100 to 1000 nM.

For the molecule `CCCC(=O)SCCOP(=O)(OCCSC(=O)CCC)C(F)(F)c1ccc2sc(C(=O)NC3CCCCC4CCC(C(=O)N5CC(C#N)C(c6cccc(OCCCCOc7ccc(C8CCC(=O)NC8=O)cc7)c6)C5)N4C3=O)cc2c1` [Compound 4, trans-S,S(((((2-(((3S,6S,10aS)-3-(3-cyano-4-(3-(4-(4-(2,6-dioxopiperidin-3-yl)phenoxy)butoxy)phenyl)pyrrolidine-1-carbonyl)-5-oxodecahydropyrrolo[1,2-a]azocin-6-yl)carbamoyl)benzo[b]thiophen-5-yl)difluoromethyl)phosphoryl)bis(oxy))bis(ethane-2,1-diyl)) dibutanethioate], the IC50 on pSTAT6 is less than 100 nM.

Turning to `CCCC(=O)SCCOP(=O)(OCCSC(=O)CCC)C(F)(F)c1ccc2sc(C(=O)N[C@H]3CCCC[C@H]4CC[C@@H](C(=O)N5C[C@@H](c6ccn(CCCCCCC#Cc7cccc8c7CN(C7CCC(=O)NC7=O)C8=O)c(=O)c6)CC56CC6)N4C3=O)cc2c1` (stereo partly drawn) [Compound 6, S,S((((2-(((3S,6S,10aS)-3-((6R)-6-(1-(8-(2-(2,6-dioxopiperidin-3-yl)-1-oxoisoindolin-4-yl)oct-7-yn-1-yl)-2-oxo-1,2-dihydropyridin-4-yl)-4-azaspiro[2.4]heptane-4-carbonyl)-5-oxodecahydropyrrolo[1,2-a]azocin-6-yl)carbamoyl)benzo[b]thiophen-5-yl)difluoromethyl)phosphoryl)bis(oxy))bis(ethane-2,1-diyl)) dibutanethioate], the IC50 on pSTAT6 is less than 100 nM.

Turning to `CCCC(=O)SCCOP(=O)(OCCSC(=O)CCC)C(F)(F)c1ccc2sc(C(=O)NC3CCCCC4CCC(C(=O)N5CC(C#N)C(c6cccc(OCCOCCOc7cccc8c7CN(C7CCC(=O)NC7=O)C8=O)c6)C5)N4C3=O)cc2c1` [Compound 15, S,S(((((2-(((3S,6S,10aS)-3-((rel-3S,4R)-3-cyano-4-(3-(2-(2-((2-(2,6-dioxopiperidin-3-yl)-1-oxoisoindolin-4-yl)oxy)ethoxy)ethoxy)phenyl)pyrrolidine-1-carbonyl)-5-oxodecahydropyrrolo[1,2-a]azocin-6-yl)carbamoyl)benzo[b]thiophen-5-yl)difluoromethyl)phosphoryl)bis(oxy))bis(ethane-2,1-diyl)) dibutanethioate], at pSTAT6, the IC50 is less than 100 nM.

On to `Cn1c(=O)n(C2CCC(=O)NC2=O)c2ccc(C#CCCC3CCN(c4ccncc4C4CN(C(=O)[C@@H]5CC[C@@H]6CCC[C@H](NC(=O)c7cc8cc([C@@H](F)P(=O)(O)O)ccc8s7)C(=O)N65)C4)CC3)cc21` (stereo partly drawn) [Compound 40, ((1S)-(2-(((3S,6S,9aS)-3-(3-(4-(4-(4-(1-(2,6-dioxopiperidin-3-yl)-3-methyl-2-oxo-2,3-dihydro-1H-benzo[d]imidazol-5-yl)but-3-yn-1-yl)piperidin-1-yl)pyridin-3-yl)azetidine-1-carbonyl)-5-oxooctahydro-1H-pyrrolo[1,2-a]azepin-6-yl)carbamoyl)benzo[b]thiophen-5-yl)fluoromethyl)phosphonic acid], for which the results for the IC50 at STAT3, at STAT6 and on pSTAT3 were less than 100 nM, more than 30 µM and less than 100 nM, respectively.

For the origin of these results see US20260306642A1, “STAT DEGRADERS AND USES THEREOF” (Recludix Pharma, Inc., priority 2023, published 2026).
